# According to ChEMBL document CHEMBL2346646, “Improving the inhibitory activity of arylidenaminoguanidine compounds at the N-methyl-D-aspartate receptor complex from a recursive computational-experimental structure-activity relationship study” (Bioorg Med Chem, 2013):
# Target: Glutamate [NMDA] receptor
# Set-up: species or system Homo sapiens
row,SMILES,pIC50
1,Cl.N=C(N)N/N=C/c1ccc([N+](=O)[O-])cc1,4.11
2,COc1ccccc1/C=N/NC(=N)N.Cl,4.77
3,CN(C)c1ccc(/C=N/NC(=N)N)cc1.Cl,5.1
4,COc1ccc(/C=N/NC(=N)N)c(OC)c1.Cl,4.54
5,Cl.N=C(N)N/N=C/c1cccc([N+](=O)[O-])c1,3.81
6,Cl.N=C(N)N/N=C/C=C/c1ccccc1,4.23
7,Cl.N=C(N)N/N=C/c1ccsc1,3.74
8,Cc1ccc2cc(/C=N/NC(=N)N)[nH]c2c1.Cl,4.48
9,Cl.Cn1c(/C=N/NC(=N)N)cc2ccccc21,4.31
10,Cl.N=C(N)N/N=C/c1ccc2[nH]ccc2c1,4.3
11,Cl.N=C(N)N/N=C/c1cc2ccccc2[nH]1,4.24
12,Cl.N=C(N)N/N=C/c1ccncc1,3.27
13,Cl.N=C(N)N/N=C/c1cccnc1,3.17
14,Cl.N=C(N)N/N=C/c1ccc[nH]1,4.02
15,Cl.N=C(N)N/N=C/c1ccc(-c2ccc([N+](=O)[O-])cc2)o1,3.96
16,Cc1ccc(/C=N/NC(=N)N)c2ccccc12.Cl,4.94
17,Cc1ccc2ccccc2c1/C=N/NC(=N)N.Cl,4.58
18,Cl.N=C(N)N/N=C/c1ccc2ccccc2c1,5.06
19,Cl.N=C(N)N/N=C/c1cccc2ccccc12,4.57
20,Cl.N=C(N)N/N=C/c1ccccc1-c1ccccc1,5.07
21,Cl.N=C(N)N/N=C/c1ccc(F)cc1F,4.26
22,Cl.N=C(N)N/N=C/c1ccc(F)cc1,4.04
23,Cl.N=C(N)N/N=C/c1ccccc1F,4.13

row,SMILES,pIC50
1,Cl.N=C(N)N/N=C/c1ccc(Cl)cc1Cl,4.99
2,Cl.N=C(N)N/N=C/c1cccc(Cl)c1,4.74
3,Cl.N=C(N)N/N=C/c1ccccc1Cl,5.15
4,COc1ccc(/C=N/NC(=N)N)cc1[N+](=O)[O-].Cl,5.11
5,COc1ccc(/C=N/NC(=N)N)cc1O.Cl,4.2
6,Cl.N=C(N)N/N=C/c1ccc(N)cc1,3.96
7,Cl.N=C(N)N/N=C/c1cccc(N)c1,3.65
8,COc1ccc(/C=N/NC(=N)N)cc1.Cl,4.42
9,Cl.N=C(N)N/N=C/c1ccc(O)cc1O,3.67
10,Cl.N=C(N)N/N=C/c1ccccc1C(F)(F)F,4.6
11,CC(C)c1ccc(/C=N/NC(=N)N)cc1.Cl,5.22
12,CCCCc1ccc(/C=N/NC(=N)N)cc1.Cl,4.37
13,CC(C)(C)c1ccc(/C=N/NC(=N)N)cc1.Cl,4.64
14,Cl.N#Cc1cccc(/C=N/NC(=N)N)c1,4.36
15,Cl.N#Cc1ccc(/C=N/NC(=N)N)cc1,3.64
16,COC(=O)c1cccc(/C=N/NC(=N)N)c1.Cl,4.14
17,COC(=O)c1ccc(/C=N/NC(=N)N)cc1.Cl,4.15
18,Cl.N=C(N)N/N=C/c1ccccc1,4.14
19,Cc1ccc(/C=N/NC(=N)N)cc1.Cl,4.09
20,Cl.N=C(N)N/N=C/c1ccc2c(c1)OCO2,4.41
21,Cl.Cl.N=C(N)N/N=C/c1ccc(/C=N/NC(=N)N)cc1,4.49
22,Cl.N=C(N)N/N=C/c1ccc(Cl)cc1,5.44
